Measured values taken from patent US8173598B2, “Myeloid protein activation of anti-inflammatory and anti-hypoxic pathway” (The Board of Trustees of the University of Illinois, priority 2008, dated 2012).
No end group written: not given here.

Legend:
[1] = test system: Human peripheral neutrophils; assay: Spontaneous oxidative activation of neutrophils (DCFH-DA oxidation); type: cell-based; settings: for rate of oxidation of the DCFH probe with soluble PAR ligands: soluble peptides given as 100 mM (FIG. 5); for rate of spontaneous oxidation of the DCFH-DA probe: 2.5 to 10 μg/ml of protein, followed over time, p <0.001 to <0.05; for oxidative metabolism (fluorescence emission of DCFH-DA probe): 1 h time point, all concentrations tested, P<0.05 compared to control; for spontaneous oxidation of the DCFH probe with protease inhibitors: α1 antichymotrypsin and elafin printed as 10 mM (FIG. 4)
Source text: (§1) Human peripheral neutrophils were isolated from heparinized blood donated by healthy volunteers according to a protocol approved by the University of Illinois Institutional Review Board. The cells were isolated using a Histopaque™ gradient (Sigma) according to the manufacturer's instructions. Cell viability and identity was confirmed by trypan blue staining. Live cells and neutrophils represented at least 95% of isolated leukocytes.
(§2) The method for the measurement of oxidative activation of neutrophils was based on the ROS-dependent oxidation of DCFH-DA to DCF and was adapted from Ciapetti et al. DCFH-DA crosses the cell membrane and is hydrolyzed by nonspecific esterases to nonfluorescent DCFH. Its oxidation by ROS results in the generation of highly fluorescent DCF [30]. DCFH-DA is therefore a widely accepted probe for the measurement of an overall index of oxidative activity. DCFH-DA was purchased from Calbiochem (Madison, Wis.). The assays were run in clear bottom black 96-well plate. “Edge effects” (a higher fluorescence in edge wells) were avoided by using only center wells. Briefly, 50 μl of Dulbecco's Phosphate Buffered Saline (DPBS) containing DCFH-DA was added to each well with the final concentration of […]. S100 proteins or PKC inhibitors were diluted in the wells. Just before a baseline reading 100,000 neutrophils in 50 μl PBS were placed in each well. 96-well plates were incubated at 37° C. and 5% CO2 and were read at baseline (immediately after cell addition to the plates) and at indicated time points in a Spectra Max Gemini XS fluorescent plate reader. The excitation wavelength was 485 and the reading was done at 530 nm. Wells with no DCFH-DA were used to measure background fluorescence which was subtracted from each reading. Controls with no cells were also analyzed and display no increased fluorescence over time. All assays were conducted in triplicate or quadruplicate wells.
In order to avoid differences between donors, experimental procedures and plate to plate variation, all experimental conditions and statistical analysis were run within one plate inclusive of all positive and negative controls. Single sample t-tests were calculated to test the S100A8, S100A9 and combined proteins in comparison to the control wells with alpha set to ≦0.05 to determine statistical significance. Comparisons between the S100A8, S100A9 and combined proteins were calculated with two sample t-tests using SPSS (SPSS Inc., Chicago, Ill.) with alpha set to ≦0.05 to determine statistical relevance.

[2] = test system: thrombin receptors; assay: Calcium flux and thrombin-S100A8/A9 cross-desensitization in Chem-3 cells; type: cell-based; settings: for calcium flux in Chem-3 cells: each alone
Method: (§3) Screening for S100A8 and S100A9 activity on thrombin receptors including thrombin receptor desensitization were conducted with calcium flux assays in Chem 3 and PAR-4 expressing Chem.-1 cells by Millipore's GPCRProfiler(R) Service (Millipore, St. Charles, Mo.; see website Millipore website on the internet).

[3] = test system: Human peripheral neutrophils; assay: PMA induced activation of neutrophil oxidative metabolism (DCFH-DA oxidation); type: cell-based
Source text: as §1, §2

[4] = molecular target: T1, PAR-4 (Homo sapiens, UniProt Q96RI0); assay: Calcium flux and desensitization to thrombin in PAR-4 expressing Chem.-1 cells; type: cell-based
T1 construct: host or cells: Chem-1 cells
T1 sequence (Q96RI0 18-385): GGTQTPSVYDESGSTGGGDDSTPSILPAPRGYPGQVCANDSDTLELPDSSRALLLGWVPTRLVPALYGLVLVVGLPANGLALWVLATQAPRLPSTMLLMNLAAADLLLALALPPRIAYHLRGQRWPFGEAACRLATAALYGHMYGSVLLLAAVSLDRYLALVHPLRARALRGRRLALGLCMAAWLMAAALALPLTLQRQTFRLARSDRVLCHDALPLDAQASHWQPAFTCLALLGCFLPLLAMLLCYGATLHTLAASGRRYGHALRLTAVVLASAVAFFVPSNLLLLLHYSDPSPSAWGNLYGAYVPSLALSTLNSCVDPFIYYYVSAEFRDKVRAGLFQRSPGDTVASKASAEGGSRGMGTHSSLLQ
Method: as §3

[5] = test system: Human peripheral neutrophils; assay: LPS stimulated neutrophil oxidative metabolism (DCFH-DA oxidation); type: cell-based
Source text: as §1, §2

[6] = test system: neutrophils; settings: in-vitro; Sroussi et al., 2006, 2007; cited from earlier work
[7] = 0.01 mU/ml ADA1, S100 proteins 10 to 2.5 μg/ml

TFLLRN [PAR-1, reference compound]
rate of oxidation of the DCFH probe with soluble PAR ligands [1]: not PAR-1, PAR-2 or PAR-3

CCCCCCCCCCCCCC(=O)O[C@@H]1[C@@H](C)[C@@]2(O)[C@@H](C=C(CO)C[C@]3(O)C(=O)C(C)=C[C@@H]23)[C@@H]2C(C)(C)[C@]12OC(C)=O [PMA, phorbol 12-myristate 13-acetate, reference compound]
rate of DCFH oxidation by a PKC activator ([1]; 1 μM PMA): significantly accelerated the rate of DCFH oxidation

thrombin [reference compound]
desensitization of Chem-3 cells to S100A8 or S100A9 stimulation ([2]; 10 nM thrombin first, then 10 μM S100A8 or 10 μM S100A9): resulted in a desensitization of Chem-3 cells to further stimulation | calcium flux in Chem-3 cells [2]: trigger calcium flux in Chem-3 cells in a dose dependent manner

GYPGQV-NH2 [PAR-4, reference compound]
rate of oxidation of the DCFH probe with soluble PAR ligands [1]: resulted in a significantly accelerated rate of oxidation of the DCFH probe

TFRGAP-NH2 [PAR-3, reference compound]
rate of oxidation of the DCFH probe with soluble PAR ligands [1]: not PAR-1, PAR-2 or PAR-3

SLIGKV-NH2 [PAR-2, reference compound]
rate of oxidation of the DCFH probe with soluble PAR ligands [1]: not PAR-1, PAR-2 or PAR-3

CN(C)CCCn1cc(C2=C(c3c[nH]c4ccccc34)C(=O)NC2=O)c2ccccc21 [GFX, Bisindolylmaleimide I, reference compound]
PMA induced activation of neutrophils oxidative metabolism ([3]; 5 μM GFX, 1 μM PMA): significantly inhibited both the PMA induced and the spontaneous activation of neutrophils oxidative metabolism | spontaneous activation of neutrophils oxidative metabolism ([1]; 5 μM GFX): significantly inhibited both the PMA induced and the spontaneous activation of neutrophils oxidative metabolism

S100A9: recombinant human S100A9 calcium binding protein, expressed in Escherichia coli as GST fusion, GST tag cleaved
calcium flux in Chem-3 cells [2]: trigger calcium flux in Chem-3 cells in a dose dependent manner | calcium flux in PAR-4 expressing cells ([4]; data not shown): activated calcium flux in those cells | desensitization of PAR-4 expressing cells to thrombin activation ([4]; previous treatment with different concentrations, then 10 nM thrombin): dose dependently desensitized PAR-4 expressing cells to thrombin activation | PMA activation of neutrophils ([3]; dose dependent): produced a dose dependent inhibition of PMA activation of neutrophils | LPS stimulation of neutrophil oxidative activity ([5]; 2.5 to 10 μg/ml of protein, LPS 10 μg/ml): strongly inhibited LPS stimulation of neutrophil oxidative activity | rate of spontaneous oxidation of the DCFH-DA probe [1]: reduced the rate at which spontaneous oxidation of the DCFH-DA probe occurred in a dose dependent manner | oxidative metabolism (fluorescence emission of DCFH-DA probe) [1]: significantly inhibited oxidative metabolism at all concentrations tested | neutrophil chemotaxis toward bacterial products (formylated peptides) [6]: inhibit neutrophil chemotaxis toward bacterial products

COc1ccccc1NC(=O)Nc1nc(-c2cccnc2)nc2ccccc12 [VUF5574, N-(2-methoxyphenyl)-N′-[2-(3-pyridinyl)-4-quinazolinyl]-urea, reference compound]
effect on anti-oxidative effect of S100A8 and S100A9, LPS exposed neutrophils ([5]; 10 μM, 10 μg/ml LPS): This anti-oxidative effect was countered | effect on anti-oxidative effect of S100A8, spontaneous oxidative metabolism ([1]; 2.5 μg/ml S100A8, 1 hour): produces a dose sensitive inhibition the anti-oxidative effect of S100A8 on neutrophil spontaneous oxidative metabolism

elafin: inhibitor of PR3 and elastase (AQEPVKGPVSTKPGSCPIILIRCAMLNPPNRCLKDTDCPGIKKCCEGSCGMACFVPQ; ends and bridges not checked; cysteine pairing not given here; UniProt P19957 61-117, looked up) [reference compound]
spontaneous oxidation of the DCFH probe with protease inhibitors [1]: no effect on DCFH oxidation

B1: α1 antichymotrypsin: α1-Antichymotrypsin from human plasma; inhibits cathepsin G (protein)
chain: HPNSPLDEENLTQENQDRGTHVDLGLASANVDFAFSLYKQLVLKAPDKNVIFSPLSISTALAFLSLGAHNTTLTEILKGLKFNLTETSEAEIHQSFQHLLRTLNQSSDELQLSMGNAMFVKEQLSLLDRFTEDAKRLYGSEAFATDFQDSAAAKKLINDYVKNGTRGKITDLIKDLDSQTMMVLVNYIFFKAKWEMPFDPQDTHQSRFYLSKKKWVMVPMMSLHHLTIPYFRDEELSCTVVELKYTGNASALFILPDQDKMEEVEAMLLPETLKRWRDSLEFREIGELYLPKFSISRDYNLNDILLQLGIEEAFTSKADLSGITGARNLAVSQVVHKAVLDVFEEGTEASAATAVKITLLSALVETRTIVRFNRPFLMIIVPTDTQNIFFMSKVTNPKQA
spontaneous oxidation of the DCFH probe with protease inhibitors [1]: caused a marked and significant reduction in the oxidation of the DCFH probe

B2: ADA1: Human adenosine deaminase from human erythrocytes; deaminates adenosine to inosine (protein, UniProt P00813 2-363, looked up)
Adenosine deaminase: AQTPAFDKPKVELHVHLDGSIKPETILYYGRRRGIALPANTAEGLLNVIGMDKPLTLPDFLAKFDYYMPAIAGCREAIKRIAYEFVEMKAKEGVVYVEVRYSPHLLANSKVEPIPWNQAEGDLTPDEVVALVGQGLQEGERDFGVKARSILCCMRHQPNWSPKVVELCKKYQQQTVVAIDLAGDETIPGSSLLPGHVQAYQEAVKSGIHRTVHAGEVGSAEVVKEAVDILKTERLGHGYHTLEDQALYNRLRQENMHFEICPWSSYLTGAWKPDTEHAVIRLKNDQANYSLNTDDPLIFKSTLDTDYQMTKRDMGFTEEEFKRLNINAAKSSFLPEDEKRELLDLLYKAYGMPPSASAGQNL
effect on S100A8/S100A9 inhibition of LPS stimulated oxidative metabolism [5, 7]: partially or fully abrogated | effect on S100A8/S100A9 inhibition of spontaneous oxidative metabolism [1, 7]: partially or fully abrogated

B3: calprotectin: mixture of S100A8 and S100A9 at a 1:1 weight ratio referred to as calprotectin (protein)
chain 1: MLTELEKALNSIIDVYHKYSLIKGNFHAVYRDDLKKLLETECPQYIRKKGADVWFKELDINTDGAVNFQEFLILVIKMGVAAHKKSHEESHKE
chain 2: MTCKMSQLERNIETIINTFHQYSVKLGHPDTLNQGEFKELVRKDLQNFLKKENKNEKVIEHIMEDLDTNADKQLSFEEFIMLMARLTWASHEKMHEGDEGPGHHHKPGLGEGTP
rate of spontaneous oxidation of the DCFH-DA probe [1]: reduced the rate at which spontaneous oxidation of the DCFH-DA probe occurred in a dose dependent manner | oxidative metabolism (fluorescence emission of DCFH-DA probe) [1]: significantly inhibited oxidative metabolism at all concentrations tested
